Literature values in patent US20210393522A1, “COMPOSITIONS FOR SOLUBILIZING WATER-INSOLUBLE ACTIVE INGREDIENTS” (priority 2020, published 2021).

Tests used:
[1] = oil-based delivery systems; humans; Agurell 1981

Solubility in water | Structure (SMILES) | Share of total CBD absorbed [1]
5 nanograms per ml | CC(C)(Sc1cc(C(C)(C)C)c(O)c(C(C)(C)C)c1)Sc1cc(C(C)(C)C)c(O)c(C(C)(C)C)c1 [Probucol, 4,4′-[Propane-2,2-diylbis(thio)]bis(2,6-di-tert-butylphenol)] | 
 | C=C(C)[C@@H]1CCC(C)=C[C@H]1c1c(O)cc(CCCCC)cc1O [CBD, cannabidiol] | 4%
